{"source": "patent US12084411B2", "about": "“Hinokitiol analogues, methods of preparing and pharmaceutical compositions thereof” (The Board of Trustees of the University of Illinois, priority 2018, dated 2024)", "key": {"[1]": {"system": "wild type J774 macrophages", "assay": "55Fe release from wild type J774 macrophages", "assay_type": "cell-based, mouse", "settings": "same concentration as in deficient system", "experimental": "J774 cells were grown in 12-well plates to ˜80% confluency. The cells were then treated with vehicle or hepcidin in fresh J774 Complete media (1 mL) and incubated at 37° C. for 1 hour. After incubation, the media was aspirated, and then a ^55Fe2Tf (50 nM) solution in J774 Complete media (1 mL) containing vehicle or hepcidin was added. The cells were incubated at 37° C. for 10 minutes, and the media was removed. The cells were rinsed with PBS (×2), and then rinsed with J774 Complete media (1 mL) for 10 minutes at 37° C. The media was aspirated, and J774 Complete media (1 mL) containing DMSO or small molecule (5 μM unless otherwise noted, 1000X dilution) was then added in the presence or absence of hepcidin. At the indicated times, aliquots (<100 μL) of the media were removed, diluted in scintillation cocktail, and radioactivity was determined by liquid scintillation counting. After completion of the experiment, the media was removed, the cells were rinsed with PBS, and the cells were lysed with 500 μL of 200 mM NaOH at 37° C. for 2 hours with continuous shaking (50 rpm). The cell lysate was diluted in scintillation cocktail and intracellular ^55Fe levels were determined by liquid scintillation counting. The % ^55Fe release was determined by the ratio of extracellular ^55Fe to total (intracellular+ extracellular) ^55Fe at the indicated times."}, "wild type (+/+) mice": {"system": "wild type (+/+) mice", "assay": "59Fe gut absorption in wild type mice", "assay_type": "in vivo", "settings": "1.5 mg/kg, after one hour", "experimental": "(§1) Temporal live cell imaging of labile iron levels in shDMT1 Caco-2 monolayers was performed after staining of Caco-2 monolayers with calcein green-AM (5 μM) in the apical and basolateral liquid for 30 minutes in pH=7.4 DMEM. […] Final volume administered was 1.5 mL/kg for each mouse, correcting for individual body weight. […] […] Radioactivity was quantified by gamma counting and calculated as the percentage of gavaged dose (±SEM). Experiments were performed with 4 genotyped-matched mice/day; preliminary analysis determined there were no gender effects on uptake of ^59Fe after intragastric gavage; mixed genders were used in the experiments shown."}, "fet3Δarn1-4Δ yeast": {"system": "fet3Δarn1-4Δ yeast", "assay": "Growth rescue of yeast missing all known siderophore transporters on agar plates", "assay_type": "cell-based, Saccharomyces cerevisiae", "settings": "10 μM hinokitiol, 10 μM FeCl3", "experimental": "MES/Tris buffer at pH=7.0 containing 2% agarose gel, 10 μM FeCl3, and 10 μM hinokitiol (from 40X stock in DMSO). […] Yeast were grown overnight in YPD media and diluted to an optical density at 600 nm (OD600) of 1.0 in low iron SD media before 10-fold serial dilution and inoculation of these yeast suspensions (10 μL per dot) onto the low iron SD-agar plates described above containing either DMSO vehicle or hinokitiol (10 μM from 40X DMSO stock)."}, "[2]": {"system": "FPN1-deficient Flatiron (ffe/+) mice", "assay": "59Fe gut absorption in Flatiron mice", "assay_type": "in vivo", "settings": "1.5 mg/kg, oral gavage, after one and two hours", "experimental": "as §1"}, "transferrin": {"target": "transferrin (Homo sapiens, UniProt P02787)", "sequence (P02787 20-698, species assumed)": "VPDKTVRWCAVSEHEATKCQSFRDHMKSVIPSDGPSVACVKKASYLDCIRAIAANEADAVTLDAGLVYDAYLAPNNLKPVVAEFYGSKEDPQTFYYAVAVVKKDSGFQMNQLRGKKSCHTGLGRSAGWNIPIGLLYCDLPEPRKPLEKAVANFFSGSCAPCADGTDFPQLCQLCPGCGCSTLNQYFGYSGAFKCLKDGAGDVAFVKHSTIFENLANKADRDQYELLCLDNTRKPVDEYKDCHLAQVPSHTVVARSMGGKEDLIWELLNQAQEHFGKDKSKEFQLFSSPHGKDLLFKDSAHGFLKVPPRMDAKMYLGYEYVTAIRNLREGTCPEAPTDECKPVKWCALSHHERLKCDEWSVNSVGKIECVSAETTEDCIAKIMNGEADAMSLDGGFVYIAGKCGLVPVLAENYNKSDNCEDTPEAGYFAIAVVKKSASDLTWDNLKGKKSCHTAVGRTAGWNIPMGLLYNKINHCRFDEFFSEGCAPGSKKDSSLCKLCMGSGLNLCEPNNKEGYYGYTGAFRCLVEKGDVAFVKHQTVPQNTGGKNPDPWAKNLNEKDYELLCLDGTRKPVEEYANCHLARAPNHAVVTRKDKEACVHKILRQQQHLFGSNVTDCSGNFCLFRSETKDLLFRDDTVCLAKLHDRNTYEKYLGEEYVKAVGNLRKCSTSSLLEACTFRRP", "assay": "Removal of 55Fe from transferrin", "assay_type": "biochemical", "settings": "buffered solution, 1 nM transferrin", "experimental": "The capacity for hinokitiol to remove iron from transferrin was determined through a ^55Fe assay adapted from Cerami and coworkers (62). ^55Fe was loaded onto transferrin (Tf) similar to previously described in PBS buffer (63). Increasing hinokitiol doses (from 1000X stocks in DMSO) were added to a solution of ^55Fe2Tf (1 nM) in PBS buffer to give the final indicated concentrations. The solution was incubated at 37° C. for 3 hours. After incubation, any ^55Fe bound to hinokitiol was isolated by extraction of iron:hinokitiol complexes with EtOAc. The radioactive levels in the organic layer were determined after dilution in scintillation cocktail."}, "TMEM14CΔ MEL cells": {"system": "TMEM14CΔ MEL cells", "assay": "Hemoglobinization of TMEM14C-deficient MEL cells", "assay_type": "cell-based, mouse", "settings": "1 μM", "experimental": "Cells were then incubated at 37° C. for 72 hours unless otherwise noted. […] Hemoglobinized MEL cells were quantified three days after DMSO induction through o-dianisidine staining similar to previously reported (74). Cells were centrifuged three days after induction and rinsed with PBS. […] Cells were then imaged on an AXIO Zoom […] microscope to obtain color images. The number of stained cells were then quantified via ImageJ analysis and compared to the number of total cells in each image. To determine that hinokitiol requires DMSO induction for hemoglobinization, 2% DMSO was not added at the beginning of the experiment before a 72-hour incubation and o-dianisidine staining."}, "normal Caco-2 monolayers": {"system": "normal Caco-2 monolayers", "assay": "Transepithelial iron transport in normal Caco-2 monolayers", "assay_type": "cell-based, Human", "settings": "same concentration as in deficient system", "method": "Media from differentiated Caco-2 monolayers (P25-50, 21-28 days post seeding) grown on PET inserts in 6-well plates was aspirated, and monolayers were rinsed with PBS. […] The monolayers were then incubated for four hours at 37° C. unless otherwise noted. A 100 μL aliquot of the basolateral fluid was removed, diluted in scintillation cocktail, and radioactivity was determined on a liquid scintillation counter to quantify relative amounts of ^55Fe transport. To determine intracellular ^55Fe, the basolateral and apical media was removed, and the monolayer was rinsed with PBS (×2). The cells were then lysed with 500 μL of 200 mM NaOH with nutator mixing overnight, and radioactivity was determined on a liquid scintillation counter after diluting the cell lysate in scintillation cocktail. All values were normalized to shControl monolayers unless otherwise noted. Absolute iron levels were determined through calibration of ^55Fe radioactivity levels with known standards and average mg of protein per membrane was determined by protein lysis with RIPA buffer containing protease inhibitors and quantified through a BCA kit according to manufacturer instructions."}, "MEL": {"system": "MEL", "assay": "WST-8 toxicity in MEL cells", "assay_type": "cell-based, mouse", "settings": "MEL cells, three days, 1 μM", "method": "(§2) Determination of small molecule-mediated toxicity in Caco-2, MEL, and/or J774 cells was performed according to manufacturer instructions using a WST-8 kit (Cayman Chemical 10010199) similar to previously reported (76) using a 1000× stock of the indicated small molecule in DMSO to give the indicated final concentration."}, "[3]": {"assay": "WST-8 toxicity in MEL cells", "assay_type": "cell-based, mouse", "settings": "mouse, wild type MEL cells; Wild Type MEL, WST-8 assay after ≥24 hours of incubation", "method": "as §2"}, "J774": {"system": "J774", "assay": "WST-8 toxicity in J774 cells", "assay_type": "cell-based, mouse", "settings": "J774 macrophages", "method": "as §2"}, "[4]": {"assay": "WST-8 toxicity in J774 cells", "assay_type": "cell-based, mouse", "settings": "mouse, wild type J774 cells; Wild Type J774, WST-8 assay after ≥24 hours of incubation", "method": "as §2"}, "[5]": {"assay": "WST-8 toxicity in Caco-2 cells", "settings": "human", "method": "as §2"}, "fet3Δftr1Δ yeast": {"system": "fet3Δftr1Δ yeast", "assay": "Sustainability assay", "assay_type": "cell-based, Saccharomyces cerevisiae", "settings": "10 μM hinokitiol, 10 μM FeCl3", "experimental": "Sustainable hinokitiol-promoted growth restoration of fet3Δftr1Δ yeast was performed similar to previously reported (20) by inoculation of hinokitiol-rescued yeast from low iron SD-agar plates containing 10 μM hinokitiol and 10 μM FeCl3 into low iron SD liquid media containing 10 μM hinokitiol and 10 μM FeCl3, then streaking of the yeast suspension (diluted to OD600 of 0.1) onto agar plates. This process was repeated for >100 days. Continued reliance of fet3Δftr1Δ yeast growth on hinokitiol was observed, as removal of hinokitiol from the SD-agar plates led to no fet3Δftr1Δ yeast cell growth."}}}
{"smiles": "CC(C)c1cccc(=O)c(O)c1", "note": "[hinokitiol]", "values": [{"measurement": "effect on iron release in wild type system", "setting": "[1]", "result": "negligible effects"}, {"measurement": "rate of iron absorption", "setting": "wild type (+/+) mice", "result": "statistically significant increase"}, {"measurement": "growth restoration of fet3Δarn1-4Δ yeast", "setting": "fet3Δarn1-4Δ yeast", "result": "restores growth"}, {"measurement": "59Fe absorption", "setting": "[2]", "result": "increased ^59Fe absorption"}, {"measurement": "excess of hinokitiol relative to transferrin needed to remove iron", "setting": "transferrin", "result": "> 1,000 fold"}, {"measurement": "hemoglobinization", "setting": "TMEM14CΔ MEL cells", "result": "did not promote hemoglobinization"}, {"measurement": "effect on transepithelial iron transport in wild type system", "setting": "normal Caco-2 monolayers", "result": "negligible effects"}, {"measurement": "observable toxicity", "setting": "MEL", "result": "without observable toxicity"}, {"measurement": "EC90", "setting": "[3]", "result": 24, "unit": "µM"}, {"measurement": "observable toxicity", "setting": "J774", "result": "without observable toxicity"}, {"measurement": "EC90", "setting": "[4]", "result": "> 100", "unit": "µM"}, {"measurement": "EC90", "setting": "[5]", "result": "> 100", "unit": "µM"}, {"measurement": "time over which growth restoration is sustained", "setting": "fet3Δftr1Δ yeast", "result": "> 100", "unit": "days"}]}
